Source: patent US11020394B2, “Compositions and methods for treating inflammatory bowel disease using a combination therapy of small molecule inhibitors of C—C chemokine receptor type 9 (CCR9) and anti-α4β7 integrin blocking antibodies” (ChemoCentryx, Inc., priority 2014, dated 2021)

System: in vitro differentiated human CCR9+α4β7+ T cells
Experiment: Static binding (adhesion) assay of in vitro differentiated T cells on MAdCAM-1-Fc coated plates
Assay type: cell-based
Details: 1 μM CCX507, with hCCL25, MAdCAM-1-Fc coated plates, FIG. 1B
Experimental: Adhesion assays were performed as follows. Human lymphocytes were isolated from total PBMCs and activated with α-CD3ε/α-CD28 (1 μg/mL; R&D Systems) in the presence of 1 μM retinoic acid (Sigma) and 1 ng/mL human IL12 (R&D Systems). In vitro activated T cells were further expanded for 5 days in the presence of 1 μM retinoic acid (RA) and 1 ng/mL human IL12. The expanded cells were stained with an anti CCR9 APC conjugated antibody (Cat. No. 248621; R&D Systems) and a conjugated anti-α4β7 integrin antibody (Act-1). The stained cells were analyzed by flow cytometry. Expression of CCR9 and α4β7 integrin in the expanded T cells was depicted as a 2-parameter scatterplot in FIG. 1A.
In vitro activated T cells were added to 96-well plate coated overnight with 0.3 μg/mL MAdCAM-1-Fc fusion protein (R&D Systems) in the presence of the following conditions: DMSO only, 500 ng human CCL25 (hCCL25; a CCR9 ligand) only, 1 μM CCX507 (a CCR9 small molecule inhibitor) only, or 500 ng hCCL25 and 1 μM CCX507. Adherent cells were quantified using CyQUANT® Cell Proliferation Assays (Thermo Fisher).

SMILES: Cc1cc(NS(=O)(=O)c2ccc(C(C)(C)C)c(F)c2)n(-c2ccc(N)c3ncccc23)n1 [CCX507]
- binding of RA-differentiated human T cells to MAdCAM-1 (adherent cells quantified using CyQUANT, RFU): limits the binding of RA-differentiated human T cells to MAdCAM-1
